Laboratory results reported in article PMC7887271, “Fast acting allosteric phosphofructokinase inhibitors block trypanosome glycolysis and cure acute African trypanosomiasis in mice” (Nature Communications, 2021).
Where two headings read alike, the source gives them in different places.

How the values were obtained:
[1] = target: T1, CYP2D6 (Homo sapiens, UniProt P10635); experiment: Inhibition of CYP2D6; format: in vitro ADME; details: CYP450 isoform inhibition kit (BD Biosciences), probe AMMC
T1 construct: purchased BD Biosciences
Description: A HepG2 cytotoxicity assay was used to determine a cellular selectivity index. HepG2 cells were seeded into 96-well plates in EMEM medium. Compounds were assessed for their effect upon cellular viability (Supplementary Methods 5.1). Inhibition of CYP450 was determined using kits from BD Biosciences (Supplementary Methods 5.2). Metabolic stability was determined using mouse […] tested at a single concentration of 5 µM. Plasma protein binding was determined using mouse and human plasma at a single concentration of 10 µM (Supplementary Methods 5.4). All PK studies in mice were carried out by Pharmidex (Supplementary Methods 6.1).
The compounds were investigated for their inhibitory effect on cytochrome P450 (CYP450) activity using five CYP450 isoforms (with fluorescent substrates in brackets): 3A4 (two substrates, BFC and DBF), 2D6 (AMMC), 2C9 (MFC), 2C19 (CEC) and 1A2 (CEC). Kits from BD Biosciences were used along with the method described by the manufacturer. […] Fluorescence was measured using a SpectraMax M5 plate reader.

[2] = Brain and plasma concentrations in mice after oral dose; format: in vivo; details: female, CD-1, mouse, single oral dose of 50 mg kg^−1, 2 h
Description: These values for concentrations of free compound in the brain give a Kp,uu value of 0.6 (defined as the ratio of unbound compound in brain to unbound compound in plasma). This ratio provides an estimate of the amount of free drug in the brain interstitial fluid as being just over half the free concentration in the blood.
Blood samples were collected from terminal cardiac puncture at 0.08 (IV only), 0.25, 0.5, 1 (PO only), 2, 4, 8 and 24 hour time points. The whole blood was centrifuged to obtain plasma. Brains were also collected following cardiac perfusion from both sets of animals at 2 hours. Analysis of the biological samples was carried out by the company Selcia. Plasma proteins were precipitated by addition of PBS (1 volume) followed by 3 volumes of acetonitrile containing internal standard (verapamil). Following filtration through a protein precipitation plate the eluent was dried under nitrogen and re-suspended in mobile phase prior to analysis. Individual brains were homogenised in PBS and diluted to 10% w/v and divided into aliquots consisting of brain homogenate (1 volume, 0.3 ml) and 3 volumes (0.9 ml) of acetonitrile containing internal standard. Samples were centrifuged and supernatants removed and taken through a protein precipitation plate alongside an appropriate standard. […] Eluents were analysed by LC-MS/MS using a Phenomenex Gemini NX column (C18,30 x 2.1 mm, 3 micron). […]

[3] = target: T2, TbPFK (Trypanosoma brucei brucei, UniProt O15648); experiment: Surface plasmon resonance (SPR); format: binding
T2 construct: made in house; host or cells: Escherichia coli C41 (pET28a, codon optimised gene)
T2 sequence (O15648 1-487): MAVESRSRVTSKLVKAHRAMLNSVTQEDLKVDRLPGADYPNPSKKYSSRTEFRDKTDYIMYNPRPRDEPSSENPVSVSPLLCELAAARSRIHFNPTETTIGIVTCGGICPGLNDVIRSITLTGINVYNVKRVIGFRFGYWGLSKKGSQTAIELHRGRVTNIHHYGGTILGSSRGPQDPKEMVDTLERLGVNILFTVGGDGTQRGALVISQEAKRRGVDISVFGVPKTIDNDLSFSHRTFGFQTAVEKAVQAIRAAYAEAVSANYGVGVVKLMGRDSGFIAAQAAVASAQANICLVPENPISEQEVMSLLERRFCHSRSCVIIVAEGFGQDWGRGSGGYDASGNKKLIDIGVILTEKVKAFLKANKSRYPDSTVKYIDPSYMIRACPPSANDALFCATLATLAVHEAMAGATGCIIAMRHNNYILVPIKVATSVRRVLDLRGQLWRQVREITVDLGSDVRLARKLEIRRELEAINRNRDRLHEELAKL
Description: SPR measurements were performed using a BIAcore T200 instrument (GE Healthcare). Active N-terminally His6-tagged TbPFK surfaces were generated using a His-tag capture and coupling onto Ni^2+‐nitrilotriacetic acid sensor chips. Following Ni^2+ priming (30 s injection of 500 μM NiCl2 at 5 μl min^−1), dextran surface carboxylate groups were minimally activated by an injection of 0.2 M EDC; 50 mM NHS at 5 μl min^−1 for 240 s. TbPFK (at concentrations between 10 and 400 nM), in 10 mM NaH2PO4, pH 7.5; 150 mM NaCl; 50 μM EDTA; 0.05% surfactant p20, was captured via the hexa-His-tag and simultaneously covalently stabilised to between 1500 RU and 3100 RU, by varying the contact time. Immediately following the capture/stabilisation a single 15 s injection of 350 mM EDTA and 50 mM imidazole in 10 mM NaH2PO4, pH 7.5; 150 mM NaCl; 50 mM EDTA; 0.05% surfactant p20, at 30 μl min^−1, was used to remove non-covalently bound protein, followed by a 180 s injection of 1 M H2N(CH2)2OH, pH 8.5 at 5 μl min^−1.
Active N-terminally His6-tagged TbPFK surfaces were generated using a His-tag capture and coupling method described previously (2). The surface density on the SPR chip = 1500 RU. A 1:1 binding model has been fitted to each sensorgram trace (black). All measurements were at 25 °C. […] Source data are provided as a Source Data file.

[4] = target: T2, TbPFK; experiment: Isothermal titration calorimetry (ITC); format: binding; details: 25 °C

T1 sequence (P10635 whole entry, canonical isoform): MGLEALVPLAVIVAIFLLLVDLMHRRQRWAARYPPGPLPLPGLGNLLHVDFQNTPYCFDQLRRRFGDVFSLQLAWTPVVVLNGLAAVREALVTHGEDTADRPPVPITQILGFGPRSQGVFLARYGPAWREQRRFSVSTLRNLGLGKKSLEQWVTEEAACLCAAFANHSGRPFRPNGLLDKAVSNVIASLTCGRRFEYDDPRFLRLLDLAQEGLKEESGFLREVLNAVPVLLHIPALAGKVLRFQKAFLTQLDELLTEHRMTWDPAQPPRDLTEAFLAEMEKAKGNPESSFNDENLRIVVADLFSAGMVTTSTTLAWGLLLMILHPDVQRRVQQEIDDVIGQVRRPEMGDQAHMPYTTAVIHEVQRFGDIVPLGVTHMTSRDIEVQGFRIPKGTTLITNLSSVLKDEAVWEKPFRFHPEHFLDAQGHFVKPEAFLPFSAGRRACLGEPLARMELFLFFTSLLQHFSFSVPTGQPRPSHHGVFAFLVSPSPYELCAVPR

Q: What does the source list for `CN(C)CCn1ccc2c(ccn2Cc2ccc(Cl)c(Cl)c2)c1=O` [CTCB-405, 1-[(3,4-Dichlorophenyl)methyl]-5-[2-(dimethylamino)ethyl] pyrrolo[3,2-c]pyridin-4-one]?
A: inhibition at 10 µM [1]: 60%; concentration at 2 h ([2]; brain homogenate, read-out: mean concentration in brain homogenate): 1510 ng/g; concentration at 2 h ([2]; plasma, read-out: mean plasma concentration): 366 ng/mL; koff [3]: 0.079 s⁻¹; kon [3]: 960000 M⁻¹ s⁻¹; Kd ([3]; 25 °C): 82 nM; Kd [4]: 92 nM; TΔS contribution ([4]; ITC): -4.03 kcal/mol; ΔG ([4]; ITC): -9.57 kcal/mol; ΔH ([4]; ITC): -13.6 kcal/mol
